Measured values from ChEMBL document CHEMBL3045291, “Synthesis and evaluation of new potent inhibitors of CK1 and CDK5, two kinases involved in Alzheimers disease” (Med Chem Res, 2013).

Tests used:
[1] = target: Casein kinase 1, delta tv1 (Sus scrofa, UniProt M3VH47); assay: Inhibition of Sus scrofa (pig) casein kinase 1delta/epsilon isolated from brain using RRKHAAIGpSAYSITA and [gamma33P]ATP as substrate after 30 min by scintillation counting
[2] = target: Cyclin-dependent kinase 5/CDK5 activator 1 (Homo sapiens, UniProt Q00535); assay: Inhibition of human recombinant CDK5/p25 using histone H1 and [gamma33P]ATP as substrate after 30 min by scintillation counting; format: protein-complex assay
Cyclin-dependent kinase 5/CDK5 activator 1, sequence (Q00535 whole entry): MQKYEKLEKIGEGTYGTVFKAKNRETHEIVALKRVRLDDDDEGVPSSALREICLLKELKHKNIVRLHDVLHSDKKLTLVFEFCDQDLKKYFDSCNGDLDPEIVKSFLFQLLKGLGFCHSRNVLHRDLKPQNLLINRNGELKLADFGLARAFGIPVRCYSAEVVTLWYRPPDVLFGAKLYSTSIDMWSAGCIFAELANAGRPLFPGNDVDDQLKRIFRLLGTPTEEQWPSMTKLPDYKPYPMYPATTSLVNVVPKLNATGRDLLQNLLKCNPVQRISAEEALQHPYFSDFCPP
Cyclin-dependent kinase 5/CDK5 activator 1, sequence (Q15078 whole entry, further chain): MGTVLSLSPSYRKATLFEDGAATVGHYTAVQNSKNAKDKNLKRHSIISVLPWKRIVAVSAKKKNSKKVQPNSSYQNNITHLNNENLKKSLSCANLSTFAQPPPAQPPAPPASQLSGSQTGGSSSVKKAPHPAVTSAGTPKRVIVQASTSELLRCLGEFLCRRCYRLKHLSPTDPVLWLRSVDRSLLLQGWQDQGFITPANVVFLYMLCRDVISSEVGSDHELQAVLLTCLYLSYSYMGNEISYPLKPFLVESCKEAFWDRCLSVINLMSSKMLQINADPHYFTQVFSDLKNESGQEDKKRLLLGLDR

[3] = target: Glycogen synthase kinase-3 (Sus scrofa, UniProt B2LUN4+I6LNT8); assay: Inhibition of Sus scrofa (pig) glycogen synthase kinase 3alpha/beta isolated from brain using YRRAAVPPSPSLSRHSSPHQpSEDEEE and [gamma33P]ATP as substrate after 30 min by liquid scintillation counting
[4] = target: Cyclin-dependent kinase 2/cyclin A (Homo sapiens, UniProt P24941); assay: Inhibition of human recombinant CDK2/cyclin A using histone H1 and [gamma33P]ATP as substrate after 30 min by scintillation counting; format: protein-complex assay
[5] = target: T1, G2/mitotic-specific cyclin-B (Asterina pectinifera, UniProt P18063); assay: Inhibition of Asteroidea (starfish) Cyclin-dependent kinase 1/cyclin B isolated from oocyte using histone H1 and [gamma33P]ATP as substrate after 30 min by scintillation counting
T1 sequence (P18063 whole entry): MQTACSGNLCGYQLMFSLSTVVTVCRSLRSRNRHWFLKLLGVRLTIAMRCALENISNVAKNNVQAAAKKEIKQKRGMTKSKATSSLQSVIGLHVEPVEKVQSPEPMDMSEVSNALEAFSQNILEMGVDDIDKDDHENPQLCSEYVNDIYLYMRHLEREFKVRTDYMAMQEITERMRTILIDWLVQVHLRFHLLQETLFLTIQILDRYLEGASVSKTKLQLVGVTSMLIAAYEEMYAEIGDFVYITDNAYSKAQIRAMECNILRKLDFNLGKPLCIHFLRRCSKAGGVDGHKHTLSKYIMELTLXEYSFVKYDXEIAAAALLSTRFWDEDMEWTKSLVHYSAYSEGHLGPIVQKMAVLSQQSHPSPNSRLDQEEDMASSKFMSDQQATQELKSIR

[6] = target: Dual specificity tyrosine-phosphorylation-regulated kinase 1A (Homo sapiens, UniProt Q13627); assay: Inhibition of Homo sapiens (human) recombinant GST-tagged DYRK1A expressed in Escherichia coli using KKISGRLSPIMTEQ and [gamma33P]ATP as substrate after 30 min by scintillation counting
[7] = target: Cyclin-dependent kinase 5 (Homo sapiens, UniProt Q00535); assay: Inhibition of CDK5 (unknown origin)
Cyclin-dependent kinase 5, sequence (Q00535 whole entry): as the sequence (Q00535 whole entry) above

Casein kinase 1, delta tv1, sequence (M3VH47 whole entry): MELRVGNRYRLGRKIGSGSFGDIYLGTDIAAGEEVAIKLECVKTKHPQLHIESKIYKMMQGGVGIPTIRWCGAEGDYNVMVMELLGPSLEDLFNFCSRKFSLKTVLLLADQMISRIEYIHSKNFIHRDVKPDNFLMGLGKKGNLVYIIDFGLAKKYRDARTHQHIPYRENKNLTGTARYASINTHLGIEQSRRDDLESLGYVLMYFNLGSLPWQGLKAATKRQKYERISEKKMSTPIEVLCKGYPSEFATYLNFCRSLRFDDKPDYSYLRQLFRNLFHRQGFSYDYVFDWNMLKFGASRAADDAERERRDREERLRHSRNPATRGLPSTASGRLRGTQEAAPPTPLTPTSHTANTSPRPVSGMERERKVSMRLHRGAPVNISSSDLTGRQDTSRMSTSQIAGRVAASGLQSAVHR

SMILES | IC50 [1] [nM] | IC50 [2] [nM] | IC50 [3] [nM] | IC50 [4] [nM] | IC50 [5] [nM] | IC50 [6] [nM] | IC50 [7] [nM]
CC(C)n1cnc2c(Nc3cccc(-c4ncccn4)c3)nc(NC(C)(C)CO)nc21 | 50 | 110 | – | – | – | – | –
CC(C)n1cnc2c(Nc3cccc(-c4ncccn4)c3)nc(NC(CO)CO)nc21 | 70 | 620 | – | – | – | – | –
CC(C)n1cnc2c(Nc3cccc(-c4cncnc4)c3)nc(Cl)nc21 | 380 | 1000 | > 10000 | – | – | – | –
CC(C)n1cnc2c(Nc3cccc(-c4cncnc4)c3)nc(NC(C)(C)CO)nc21 | 320 | 110 | – | 110 | – | – | –
CC(C)n1cnc2c(Nc3ccc(-c4cncnc4)cc3)nc(Cl)nc21 | 410 | 2100 | > 10000 | 1100 | – | – | –
CC(C)n1cnc2c(Nc3ccc(-c4cncnc4)cc3)nc(NC(CO)CO)nc21 | 640 | 190 | – | 330 | – | – | –
CC(C)n1cnc2c(Nc3ccc(-c4cncnc4)cc3)nc(NC(C)(C)CO)nc21 | 500 | 110 | – | 200 | – | – | –
CC(C)n1cnc2c(Nc3cccc(-c4ncccn4)c3)nc(Cl)nc21 | 60 | 1900 | > 10000 | 1900 | 10000 | > 10000 | –
NC1=NC(=O)/C(=C2\CCNC(=O)c3[nH]c(Br)cc32)N1 [HYMENIALDISINE] | – | – | – | – | – | – | 30
